Data as given in patent US10787450B2 (BRISTOL-MYERS SQUIBB COMPANY, priority 2016, dated 2020).

The molecules below were run against ROCK2 (Homo sapiens (Human), UniProt O75116) (assay: ROCK2 kinase inhibition assay (FITC peptide substrate, LABCHIP 3000 Reader)). Conditions: 5 μM ATP, 1.5 μM peptide substrate.
Type: biochemical
Outline: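 IC50 derived by curve fitting of dose-response inhibition, read as separation of phosphorylated from unphosphorylated FITC peptide (1.5 μM) after EDTA stop. Buffer: HEPES pH 7.5, MgCl2, Brij-35, DTT; ATP 5 μM; final DMSO <2%; reaction initiated by Rho kinase addition.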

Sequence of ROCK2 (O75116 whole entry, species assumed): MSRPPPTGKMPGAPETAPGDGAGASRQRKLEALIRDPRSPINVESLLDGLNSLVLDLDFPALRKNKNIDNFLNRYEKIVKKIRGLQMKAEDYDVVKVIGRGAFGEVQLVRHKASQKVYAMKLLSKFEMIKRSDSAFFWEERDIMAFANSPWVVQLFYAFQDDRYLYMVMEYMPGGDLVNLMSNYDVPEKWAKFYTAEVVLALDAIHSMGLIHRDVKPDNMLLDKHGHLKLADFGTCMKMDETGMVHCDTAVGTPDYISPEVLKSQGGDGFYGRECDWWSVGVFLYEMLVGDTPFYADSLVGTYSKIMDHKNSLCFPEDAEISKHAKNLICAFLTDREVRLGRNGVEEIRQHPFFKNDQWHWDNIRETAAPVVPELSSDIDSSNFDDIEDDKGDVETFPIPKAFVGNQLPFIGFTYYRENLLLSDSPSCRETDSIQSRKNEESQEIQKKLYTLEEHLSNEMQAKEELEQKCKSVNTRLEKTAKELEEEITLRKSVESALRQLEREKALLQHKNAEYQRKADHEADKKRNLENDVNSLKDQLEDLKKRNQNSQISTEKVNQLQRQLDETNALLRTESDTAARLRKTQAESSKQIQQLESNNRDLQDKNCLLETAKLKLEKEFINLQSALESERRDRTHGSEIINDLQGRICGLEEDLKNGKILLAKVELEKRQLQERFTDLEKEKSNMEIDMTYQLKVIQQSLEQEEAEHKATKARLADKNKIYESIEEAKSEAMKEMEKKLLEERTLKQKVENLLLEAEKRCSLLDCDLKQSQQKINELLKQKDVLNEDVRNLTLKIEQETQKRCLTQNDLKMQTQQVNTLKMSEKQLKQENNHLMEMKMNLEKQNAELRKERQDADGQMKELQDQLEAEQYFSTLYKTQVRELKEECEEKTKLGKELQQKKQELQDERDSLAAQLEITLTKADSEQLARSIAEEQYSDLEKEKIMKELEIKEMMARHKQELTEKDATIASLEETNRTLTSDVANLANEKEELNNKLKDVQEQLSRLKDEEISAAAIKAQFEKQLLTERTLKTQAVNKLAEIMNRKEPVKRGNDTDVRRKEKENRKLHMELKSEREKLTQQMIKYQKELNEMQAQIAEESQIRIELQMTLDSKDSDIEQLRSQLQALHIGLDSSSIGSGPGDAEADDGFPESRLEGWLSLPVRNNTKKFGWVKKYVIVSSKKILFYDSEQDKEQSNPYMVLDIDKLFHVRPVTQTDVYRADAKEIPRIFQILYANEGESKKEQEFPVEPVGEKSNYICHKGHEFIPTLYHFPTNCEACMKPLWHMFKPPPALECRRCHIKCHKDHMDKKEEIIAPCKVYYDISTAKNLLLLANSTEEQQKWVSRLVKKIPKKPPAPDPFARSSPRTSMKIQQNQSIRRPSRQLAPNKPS

IC50 [nM]	SMILES
< 3	CCc1cc(N2CC3(CC3)N(Cc3cccc(OC)c3)C2=O)ccc1-c1cn[nH]c1 [Example 5, 6-(3-ethyl-4-(1H-pyrazol-4-yl)phenyl)-4-(3-methoxybenzyl)-4,6-diazaspiro[2.4]heptan-5-one]
30 to 250	COc1cccc(CN2C(=O)N(c3ncc(-c4cn[nH]c4)c(OC)n3)CC23CCN(CCC(F)(F)F)CC3)c1 [Example 134, 3-(4-methoxy-5-(1H-pyrazol-4-yl)pyrimidin-2-yl)-1-(3-methoxybenzyl)-8-(3,3,3-trifluoropropyl)-1,3,8-triazaspiro[4.5]decan-2-one]
< 3	COc1cccc(CN2C(=O)N(c3ccc(-c4cn[nH]c4)c(OC)n3)CC23CCN(C(=O)CO)CC3)c1 [Example 220, 8-(2-hydroxyacetyl)-3-(6-methoxy-5-(1H-pyrazol-4-yl)pyridin-2-yl)-1-(3-methoxybenzyl)-1,3,8-triazaspiro[4.5]decan-2-one]
30 to 250	CCOC(=O)N1CCC2(CC1)CN(c1ccc(-c3cn[nH]c3)cn1)C(=O)N2Cc1cccc(OC)c1 [Example 110, ethyl 3-(5-(1H-pyrazol-4-yl)pyridin-2-yl)-1-(3-methoxybenzyl)-2-oxo-1,3,8-triazaspiro[4.5]decane-8-carboxylate]
3 to 30	CCc1nc(N2CC3(CCN(CCC(F)(F)F)CC3)N(Cc3cc(F)cc(OC)c3)C2=O)ccc1-c1cn[nH]c1 [Example 128, 3-(6-ethyl-5-(1H-pyrazol-4-yl)pyridin-2-yl)-1-(3-fluoro-5-methoxybenzyl)-8-(3,3,3-tnfluoropropyl)-1,3,8-triazaspiro[4.5]decan-2-one]
3 to 30	CC(C)NC(=O)c1cccc(CN2C(=O)N(c3ccc(-c4cn[nH]c4)cc3)CC23CCOCC3)c1 [Example 34, 3-((3-(4-(1H-pyrazol-4-yl)phenyl)-2-oxo-8-oxa-1,3-diazaspiro[4.5]decan-1-yl)methyl)-N-isopropylbenzamide]
30 to 250	N#Cc1cccc(CN2C(=O)N(c3ccc(-c4cn[nH]c4)cc3)CC23CCOCC3)c1 [Example 14, 3-((3-(4-(1H-pyrazol-4-yl)phenyl)-2-oxo-8-oxa-1,3-diazaspiro[4.5]decan-1-yl)methyl)benzonitrile]
< 3	COc1cccc(CN2C(=O)N(c3ccc(-c4cn[nH]c4)cc3)CC23CCN(CC(N)=O)CC3)c1 [Example 169, 2-(3-(4-(1H-pyrazol-4-yl)phenyl)-1-(3-methoxybenzyl)-2-oxo-1,3,8-triazaspiro[4.5]decan-8-yl)acetamide]
3 to 30	COc1cccc(CN2C(=O)N(c3ccc(-c4cn[nH]c4)cc3)CC23CCN(C(=O)OCC(C)(C)C)CC3)c1 [Example 97, neopentyl 3-(4-(1H-pyrazol-4-yl)phenyl)-1-(3-methoxybenzy1)-2-oxo-1,3,8-triazaspiro[4.5]decane-8-carboxylate]
3 to 30	COc1cccc(CN2C(=O)N(c3ccc(-c4cn[nH]c4)cn3)CC23CCN(CCC(F)(F)F)CC3)c1 [Example 133, 3-(5-(1H-pyrazol-4-yl)pyridin-2-yl)-1-(3-methoxybenzyl)-8-(3,3,3-trifluoropropyl)-1,3,8-triazaspiro[4.5]decan-2-one]
< 3	COC(=O)N1CCC2(CC1)CN(c1ccc(-c3cn[nH]c3)cc1)C(=O)N2Cc1cccc(F)c1C [Example 108, methyl 3-(4-(1H-pyrazol-4-yl)phenyl)-1-(3-fluoro-2-methylbenzyl)-2-oxo-1,3,8-triazaspiro[4.5]decane-8-carboxylate]
< 3	CCc1nc(N2CC3(CCN(CCO)CC3)N(Cc3cccc(OC)c3)C2=O)ccc1-c1cn[nH]c1 [Example 150, 3-(6-ethyl-5-(1H-pyrazol-4-yl)pyridin-2-yl)-8-(2-hydroxyethyl)-1-(3-methoxybenzyl)-1,3,8-triazaspiro[4.5]decan-2-one]
3 to 30	COc1cccc(CN2C(=O)N(c3ccc(-c4cn[nH]c4)cn3)CC23CCN(C(=O)C2COC2)CC3)c1 [Example 196, 3-(5-(1H-pyrazol-4-yl)pyridin-2-yl)-1-(3-methoxybenzyl)-8-(oxetane-3-carbonyl)-1,3,8-triazaspiro[4.5]decan-2-one]
< 3	COc1cccc(CN2C(=O)N(c3ccc(-c4cn[nH]c4)cc3)CC23CCN(C(=O)C2CCC(F)(F)CC2)CC3)c1 [Example 171, 3-(4-(1H-pyrazol-4-yl)phenyl)-8-(4,4-difluorocyclohexanecarbonyl)-1-(3-methoxybenzyl)-1,3,8-triazaspiro[4.5]decan-2-one]
3 to 30	COC(=O)N1CCC2(CC1)CN(c1ncc(-c3cn[nH]c3)c(OC)n1)C(=O)N2Cc1cccc(OC)c1 [Example 111, methyl 3-(4-methoxy-5-(1H-pyrazol-4-yl)pyrimidin-2-yl)-1-(3-methoxybenzyl)-2-oxo-1,3,8-triazaspiro[4.5]decane-8-carboxylate]
3 to 30	O=C1N(c2ccc(-c3cn[nH]c3)cc2)CC2(CCNCC2)N1CC1CCCCC1 [Example 67]
250 to 3000	COc1cccc(NC2C(=O)N(c3ncc(-c4cn[nH]c4)c(OC)n3)CC23CCN(C(=O)OC(C)(C)C)CC3)c1 (centres unmarked) [Example 241, tert-butyl 2-(4-methoxy-5-(1H-pyrazol-4-yl)pyrimidin-2-yl)-4-((3-methoxyphenyl)amino)-3-oxo-2,8-diazaspiro[4.5]decane-8-carboxylate]
30 to 250	CC(=O)N1CCC2(CC1)CN(c1ccc(-c3cn[nH]c3)cc1)C(=O)N2Cc1cc(F)ccc1F [Example 78, 3-(4-(1H-pyrazol-4-yl)phenyl)-8-acetyl-1-(2,5-difluorobenzyl)-1,3,8-triazaspiro[4.5]decan-2-one]
< 3	CCc1nc(N2CC3(CCN(C(=O)C4COC4)CC3)N(Cc3cccc(F)c3C)C2=O)ccc1-c1cn[nH]c1 [Example 182, 3-(6-ethyl-5-(1H-pyrazol-4-yl)pyridin-2-yl)-1-(3-fluoro-2-methylbenzyl)-8-(oxetane-3-carbonyl)-1,3,8-triazaspiro[4.5]decan-2-one]
3 to 30	COc1cccc(CN2C(=O)N(c3ccc(-c4cn[nH]c4)cn3)CC23CCN(C(=O)C(C)O)CC3)c1 (centres unmarked) [Example 198, 3-(5-(1H-pyrazol-4-yl)pyridin-2-yl)-8-(2-hydroxypropanoyl)-1-(3-methoxybenzyl)-1,3,8-triazaspiro[4.5]decan-2-one]
250 to 3000	O=C1N(c2ccc(-c3cn[nH]c3)cc2)CC2(CCNCC2)N1CC1CCOCC1 [Example 72, 3-(4-(1H-pyrazol-4-yl)phenyl)-1-((tetrahydro-2H-pyran-4-yl)methyl)-1,3,8-triazaspiro[4.5] decan-2-one]
< 3	Cc1c(F)cccc1CN1C(=O)N(c2ccc(-c3cn[nH]c3)cc2)CC12CCOCC2 [Example 25, 3-(4-(1H-pyrazol-4-yl)phenyl)-1-(3-fluoro-2-methylbenzyl)-8-oxa-1,3-diazaspiro[4.5]decan-2-one]
3 to 30	O=C1N(c2ccc(-c3cn[nH]c3)cc2)CC2(CCNCC2)N1Cc1cccc(OC(F)F)c1 [Example 61, 3-(4-(1H-pyrazol-4-yl)phenyl)-1-(3-(difluoromethoxy)benzyl)-1,3,8-triazaspiro[4.5]decan-2-one]
< 3	COc1cccc(CN2C(=O)N(c3ccc(-c4cn[nH]c4)cc3)CC23CCN(C(=O)C2CCCC2)CC3)c1 [Example 174, 3-(4-(1H-pyrazol-4-yl)phenyl)-8-(cyclopentanecarbonyl)-1-(3-methoxybenzyl)-1,3,8-triazaspiro[4.5]decan-2-one]
3 to 30	O=C1N(c2ccc(-c3cn[nH]c3)cc2)CC2(CCOCC2)N1Cc1cccc(F)c1 [Example 13, 3-(4-(1H-pyrazol-4-yl)phenyl)-1-(3-fluorobenzyl)-8-oxa-1,3-diazaspiro[4.5]decan-2-one]
< 3	COc1cccc(CN2C(=O)N(c3ccc(-c4cn[nH]c4)c(OC)n3)CC23CCN(C(=O)C(C)O)CC3)c1 (centres unmarked) [Example 221, 8-(2-hydroxypropanoyl)-3-(6-methoxy-5-(1H-pyrazol-4-yl)pyridin-2-yl)-1-(3-methoxybenzyl)-1,3,8-triazaspiro[4.5]decan-2-one]
< 3	COc1cccc(CN2C(=O)N(c3ccc(-c4cn[nH]c4)c(OC)n3)CC23CCN(CC(C)(C)O)CC3)c1 [Example 148, 8-(2-hydroxy-2-methylpropyl)-3-(6-methoxy-5-(1H-pyrazol-4-yl)pyridin-2-yl)-1-(3-methoxybenzyl)-1,3,8-triazaspiro[4.5]decan-2-one]
< 3	COc1cccc(CN2C(=O)N(c3ccc(-c4cn[nH]c4)cc3)CC23CCN(CC(C)(C)O)CC3)c1 [Example 138, 3-(4-(1H-pyrazol-4-yl)phenyl)-8-(2-hydroxy-2-methylpropyl)-1-(3-methoxybenzyl)-1,3,8-triazaspiro[4.5]decan-2-one]
3 to 30	O=C1N(c2ccc(-c3cn[nH]c3)cc2)CC2(CCOCC2)N1Cc1cc(F)cc(F)c1 [Example 24, 3-(4-(1H-pyrazol-4-yl)phenyl)-1-(3,5-difluorobenzyl)-8-oxa-1,3-diazaspiro[4.5]decan-2-one]

SMILES	IC50 [nM]
COc1cc(F)cc(CN2C(=O)N(c3ccc(-c4cn[nH]c4)cc3)CC23CCN(CC(F)F)CC3)c1 [Example 132, 3-(4-(1H-pyrazol-4-yl)phenyl)-8-(2,2-difluoroethyl)-1-(3-fluoro-5-methoxybenzyl)-1,3,8-triazaspiro[4.5]decan-2-one]	< 3
COc1cccc(CN2C(=O)N(c3ccc(-c4cn[nH]c4)c(OC)n3)CC23CCN(CC(F)F)CC3)c1 [Example 135, 8-(2,2-difluoroethyl)-3-(6-methoxy-5-(1H-pyrazol-4-yl)pyridin-2-yl)-1-(3-methoxybenzyl)-1,3,8-triazaspiro[4.5]decan-2-one]	< 3
CCc1nc(N2CC3(CCN(CC(F)F)CC3)N(Cc3cc(F)cc(OC)c3)C2=O)ccc1-c1cn[nH]c1 [Example 129, 8-(2,2-difluoroethyl)-3-(6-ethyl-5-(1H-pyrazol-4-yl)pyridin-2-yl)-1-(3-fluoro-5-methoxybenzyl)-1,3,8-triazaspiro[4.5]decan-2-one]	3 to 30
